Data reported in US9980976B2, “Use of REDD1 inhibitors to dissociate therapeutic and adverse atrophogenic effects of glucocorticoid receptor agonists” (Northwestern University, priority 2015, dated 2018).

Legend:
mTOR = mTOR activity in mouse skin (phosphorylation of 4E-BP1 and rpS6, phospho-mTOR Ser2448); type: in vivo; settings: B6D2 mice, topical FA
Source text: Because REDD1 is a known inhibitor of mTOR signaling (Sofer et al, 2005; Wang et al, 2006; DeYoung et al, 2008; Shimizu et al, 2011), we tested whether FA inhibits mTOR activity in the skin. In previous studies, mTOR activity has been monitored by phosphorylation of its major substrates, 4E-BP1 (eukaryotic initiation factor 4E binding protein 1) and S6K1 (ribosomal p70/S6 kinase 1) as well as ribosomal protein S6 (rpS6), a substrate of S6K1 (Checkley et al, 2011). As basal level of S6K1 phosphorylation was low in skin of B6D2 mice, we used 4E-BP1 and rpS6 as preferred markers. […] Moreover, there was an inverse correlation between phosphorylation of mTOR targets and REDD1 expression in the epidermis. By the time when REDD1 expression reached its peak (8 h after 1st and 2nd FA applications), the repression of mTOR activity by FA was most pronounced (FIGS. 2A, B). We further confirmed this inverse correlation using immunostaining for REDD1 and active, phosphorylated at Ser2448 mTOR (FIG. 2A). […]

pri-miR-221 = assay: Q-PCR analysis of primary miR-221 in mouse epidermis; type: in vivo; settings: 24 h after single FA application and after the first week of chronic treatment
Method: FIG. 9. Inverse correlation between pri-miR-221 and REDD1 expression during glucocorticoid treatment. B6D2 mice were treated with FA topically as described in Materials and Methods, epidermis was harvested at indicated time points. A. Western blot analysis. B. Q-PCR analysis of primary miR-221. Data are expressed as the fold change (mean±SD) with respect to the controls (unpaired two-tailed t-test, n=3).
Total RNA from murine epidermis, whole human skin, and cell cultures was isolated with RiboPure kit (Ambion, Life Technologies, Grand Island, N.Y., USA). Total RNA from murine s.c. adipose was isolated with RNeasy Lipid Tissue Kit (Qiagen, Valencia, Calif., USA). The RNA samples were treated with TURBOT™ DNase (Ambion). The gene expression was assessed using semi-quantitative two-step RT-PCR and quantitative Q-PCR. Reverse transcription was performed using 1 μg RNA, random hexamers, and M-MLV reverse transcriptase (Invitrogen, Life Technologies), according to manufacturer instructions. The gene-specific primers were designed with NCBI Primer-BLAST (data not shown, see Baida et al., EMBO, 2015, at Supplementary Table S4). […] For semi-quantitative PCRs, Taq DNA polymerase (Promega) was used, and PCR products were separated on 1.5% agarose gel and visualized using automated imaging system (Bio-Rad, Hercules, Calif., USA). […]

[1] = test system: glucocorticoid-responsive genes in murine epidermis; assay: Genome-wide expression profiling of murine epidermis (microarray, Q-PCR validation); type: in vivo, mouse; settings: FA
Method: To investigate the global role of REDD1 in GR signaling, we performed genome-wide expression profiling of the epidermis of REDD1 and wild-type mice treated with vehicle (control) or FA using Illumina mouse whole-genome gene array (GEO Submission GSE59151). Gene expression was measured 24 h post-FA application, when both TA and TR are usually fully developed (Wu et al, 2004). Differential expression was identified based on the adjusted P-value threshold of 0.05.
RNA samples were checked for quality and integrity with the Agilent 2100 bioanalyzer and used for microarray analysis. RNA amplification, labeling, and hybridization with the Mouse Whole-Genome Gene Expression BeadChips MouseRef-8 v2.0 (Illumina) were performed at the Genomics Core Facility at the Center for Genetic Medicine at Northwestern University according to Illumina protocols.
Microarray processing was performed using the Limma package (Smyth, 2005), using the neqc function to perform background subtraction using the negative control probes, and quantile normalization using both positive and negative control probes. Differentially expressed probes were identified using the linear model implemented in Limma, applying an adjusted P-value threshold of 0.05. Q-PCR and microarray based gene expression values were compared using linear Pearson correlation.
Gene ontology analysis was performed using the DAVID Bioinformatics resource tool (Huang et al, 2009a,b), submitting differentially expressed probes from each experiment, against the probe background of MouseRef 8. DAVID performs a hypergeometric test to identify overrepresented GO terms in a list of differentially expressed probes. Results are presented for categories with greater than or equal to threefold enrichment and P=0.01.

CC1(C)O[C@@H]2C[C@H]3[C@@H]4C[C@H](F)C5=CC(=O)C=C[C@]5(C)[C@@]4(F)[C@@H](O)C[C@]3(C)[C@]2(C(=O)CO)O1 [FA, fluocinolone acetonide]
mTOR activity in the skin (mTOR): blocked mTOR activity | pri-miR-221 level (pri-miR-221): significantly increased | gene categories up-regulated (GO analysis) ([1]; REDD1 KO keratinocytes): up-regulated genes related to autophagy, endosomes, and PI3K signaling | Cd74 and H2-Ab1 expression (Q-PCR array validation) ([1]; wild-type and REDD1 KO epidermis): similarly down-regulated | gene categories inhibited (GO analysis) ([1]; wild-type but not REDD1 KO skin): inhibited genes related to DNA replication
